# Results published in ChEMBL document CHEMBL5252614, “Dioncophyllidine E: The first configurationally semi-stable, 7,3'-coupled naphthyldihydroisoquinoline alkaloid, from Ancistrocladus abbreviatus, with antiausterity activity against PANC-1 human pancreatic cancer cells” (2023).
# Tests used:
# Assay type in all cases: functional
# PANC-1 [1] = assay: Inhibition of colony formation in human PANC1 cells assessed as colony area at 10 uM incubated for 24 hrs in normal nutrient DMEM media followed by replacement with fresh media and further incubated for 10 days (reference value: 52%); set-up: scale not given: the % may be the effect or the level left
# PANC-1 [2] = assay: Preferential cytotoxicity against human PANC-1 cells in nutrient-deprived medium
# PANC-1 [3] = assay: Inhibition of colony formation in human PANC1 cells assessed as colony area at 40 uM incubated for 24 hrs in normal nutrient DMEM media followed by replacement with fresh media and further incubated for 10 days (reference value: 52%); set-up: scale not given: the % may be the effect or the level left
# PANC-1 [4] = assay: Inhibition of colony formation in human PANC1 cells assessed as colony area at 20 uM incubated for 24 hrs in normal nutrient DMEM media followed by replacement with fresh media and further incubated for 10 days (reference value: 52%); set-up: scale not given: the % may be the effect or the level left
# PANC-1 [5] = assay: Induction of cell death in human PANC-1 cells assessed as increase in cells emitting red fluorescence incubated for 24 hrs in nutrient-deprived medium by ethidium bromide/acridine orange staining based analysis; conditions: dose 10-20 µM
# PANC-1 [6] = assay: Induction of cell death in human PANC-1 cells assessed as alteration in cell morphology incubated for 24 hrs in nutrient-deprived medium by ethidium bromide/acridine orange staining based analysis; conditions: dose 10-20 µM
compound,measurement,setting,value
COc1cccc2cc(C)c(-c3ccc4c(c3O)C(C)=N[C@H](C)C4)c(O)c12,Activity,PANC-1 [1],47%
same,PC50,PANC-1 [2],7.4 µM
same,Activity,PANC-1 [3],24%
same,Activity,PANC-1 [4],38%
same,Activity,PANC-1 [5],Dose-Dependent Effect
same,Activity,PANC-1 [6],Dose-Dependent Effect
